The source of these data is PubChem BioAssay (NCI).

Test systems include A498 renal; IGROV1 ovarian; SF-268 CNS; SF-295 CNS; SK-MEL-2 melanoma; SNB-75 CNS; TK-10 renal; NCI-H226 lung; SNB-19 CNS; U251 CNS.
Common to all, as to test: growth of human tumour cells (NCI), 48 h

Molecules are shown by their SMILES. “And” between values parts separate entries of the source, which are not always exact repeats. Identical values can stand only once.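 Cells were grown in 96-well plates and exposed to each compound for 48 hours at five concentrations; endpoints were interpolated linearly between bracketing concentrations, or set to the highest concentration if not reached. Here, GI50 denotes the concentration required for 50% inhibition of growth. TGI: concentration producing complete growth inhibition.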

With `Cc1ccc(-c2cc(-c3ccco3)c(C#N)c(=O)n2C2OC(OC(=O)c3ccccc3)C(OC(=O)c3ccccc3)C2OC(=O)c2ccccc2)cc1` (centres undefined), the TGI in the assay with A498 renal, with IGROV1 ovarian, in the assay on SF-268 CNS, in the assay on SF-295 CNS, in the assay with SK-MEL-2 melanoma and with SNB-75 CNS was greater than 100 µM each time. Further, the TGI in the assay on TK-10 renal is greater than 100 µM.
Turning to `O=C1NC(=S)S/C1=C(/C=C(\CC(=O)c1ccccc1)c1ccc(Cl)cc1)c1ccccc1`, the GI50 in the assay on A498 renal is 38 µM; with IGROV1 ovarian, 41.6 µM; in the assay with NCI-H226 lung, 28.5 µM; with SF-268 CNS, 27.1 µM; in the assay with SF-295 CNS it was 23.4 µM; in the assay on SNB-19 CNS, 95.1 µM. In addition, the GI50 with TK-10 renal was 29.6 µM; in the assay on U251 CNS, 30.9 µM. For the same compound, the TGI in the assay with A498 renal is 76 µM; in the assay with IGROV1 ovarian, greater than 100 µM; in the assay with NCI-H226 lung, 90.4 µM; in the assay on SF-268 CNS, 96 µM; with SF-295 CNS, 64.7 µM; with SNB-19 CNS, greater than 100 µM. The TGI in the assay on TK-10 renal and with U251 CNS was greater than 100 µM in each case.
As to `NC(=S)NNc1c([N+](=O)[O-])cnn(-c2ccccc2)c1=O`, the TGI came out at 35 µM in the assay on IGROV1 ovarian; 35 µM with NCI-H226 lung; 40.6 µM with SF-268 CNS; 29.4 µM with SF-295 CNS; 33.9 µM in the assay on SNB-19 CNS; 34.1 µM in the assay on SNB-75 CNS. Besides, the TGI with TK-10 renal was 46.6 µM; in the assay with U251 CNS it was 30.7 µM.
`COc1ccc(-c2oc3c(OC)c(OC)c(OC)c(OC)c3c(=O)c2OC)cc1OC`: the TGI with A498 renal was greater than 100 µM; with IGROV1 ovarian, greater than 100 µM; with NCI-H226 lung, greater than 100 µM; in the assay with SF-268 CNS, 35.2 µM; with SF-295 CNS, greater than 100 µM; in the assay with SK-MEL-2 melanoma, greater than 100 µM. For the same compound, the TGI in the assay with SNB-19 CNS, with TK-10 renal and in the assay on U251 CNS was greater than 100 µM throughout.
Turning to `COC1OC(CO)C(O)C1N` (centres undefined), the TGI in the assay on A498 renal, in the assay on IGROV1 ovarian, in the assay with NCI-H226 lung, in the assay on SF-268 CNS, with SF-295 CNS and with SNB-19 CNS was greater than 100 µM throughout. The TGI in the assay with SNB-75 CNS, in the assay on TK-10 renal and with U251 CNS was greater than 100 µM in each case.
On to `Cc1cccc(C)c1NC(=O)C1C(=O)N(c2c(C)cccc2C)C(=O)/C1=N\NC(N)=S` (centres undefined), for which the TGI with A498 renal, with IGROV1 ovarian, in the assay with SF-268 CNS, in the assay with SF-295 CNS, with SK-MEL-2 melanoma and in the assay on SNB-19 CNS was greater than 100 µM in each case. Moreover, the TGI with TK-10 renal and with U251 CNS was greater than 100 µM each time.
Turning to `N.N.N.N.O=C([O-])C(Cl)Cl.O=C([O-])C(Cl)Cl.[Co+3].[O-][Cl+3]([O-])([O-])[O-]`, the GI50 in the assay with A498 renal, with IGROV1 ovarian, in the assay with SF-268 CNS, in the assay with SF-295 CNS, with SK-MEL-2 melanoma and in the assay with SNB-19 CNS was greater than 100 µM throughout. Also, the GI50 with SNB-75 CNS, in the assay on TK-10 renal and in the assay on U251 CNS was greater than 100 µM each time. Besides, the TGI in the assay on A498 renal, with IGROV1 ovarian, in the assay with SF-268 CNS, with SF-295 CNS, in the assay on SK-MEL-2 melanoma and in the assay with SNB-19 CNS was greater than 100 µM throughout. Moreover, the TGI with SNB-75 CNS, in the assay with TK-10 renal and in the assay on U251 CNS was greater than 100 µM each time.
Turning to `N#CCCN(CCC#N)c1ccc(C(Sc2ccccc2)C(NC(=O)c2cc([N+](=O)[O-])ccc2Cl)C(=O)Sc2ccccc2)cc1` (centres undefined), the GI50 is 1.49 µM in the assay on IGROV1 ovarian; 1.27 µM in the assay with SF-268 CNS; 3.98 µM in the assay with SNB-19 CNS; 1.85 µM in the assay with SNB-75 CNS; 3.97 µM in the assay on TK-10 renal. Further, the TGI is 8.99 µM and 4.2 µM in the assay on IGROV1 ovarian; 5.16 µM and 5.01 µM in the assay on NCI-H226 lung; 8.86 µM and 5.95 µM in the assay with SF-268 CNS; 13.1 µM in the assay with SF-295 CNS; 4.64 µM in the assay with SK-MEL-2 melanoma; 18.6 µM with SNB-19 CNS. Also, the TGI in the assay with SNB-75 CNS was 7.19 µM; in the assay on TK-10 renal, 9.62 µM; with U251 CNS, 4.15 µM and 6.01 µM.
As for `Cc1ccccc1C1=C(C(=O)Nc2ccc(Cl)c(Cl)c2)NC(=S)NC1N` (centres undefined), the TGI in the assay with A498 renal, with IGROV1 ovarian, with SF-268 CNS, in the assay on SK-MEL-2 melanoma, in the assay with SNB-19 CNS and with SNB-75 CNS was greater than 100 µM in each case. Moreover, the TGI in the assay with TK-10 renal and with U251 CNS was greater than 100 µM each time.
`COC(=O)c1ccccc1NC(=O)C(=O)NNC(=O)c1ccncc1`: the TGI in the assay on IGROV1 ovarian, in the assay with NCI-H226 lung, in the assay with SF-295 CNS, with SNB-19 CNS, in the assay with SNB-75 CNS and in the assay with TK-10 renal was greater than 100 µM each time.
Take `COc1ccc(C2=NN(C=O)C(c3cccc(Nc4ccnc5cc(Cl)ccc45)c3)C2)cc1` (centres undefined): the GI50 is 1.35 µM in the assay with A498 renal; 3.71 µM with IGROV1 ovarian; 3.13 µM in the assay with NCI-H226 lung; 4.8 µM with SF-268 CNS; 1.24 µM in the assay on SF-295 CNS; 5.11 µM in the assay on SNB-19 CNS. Moreover, the results for the GI50 in the assay with SNB-75 CNS, with TK-10 renal and with U251 CNS were 2.56 µM, 4.24 µM and 2.77 µM, respectively. Also, the TGI is 9.26 µM in the assay on A498 renal; greater than 100 µM in the assay with IGROV1 ovarian; greater than 100 µM in the assay with NCI-H226 lung; 88.7 µM with SF-268 CNS; 23 µM in the assay on SF-295 CNS; greater than 100 µM in the assay on SNB-19 CNS. For the same compound, the results for the TGI with SNB-75 CNS, in the assay with TK-10 renal and with U251 CNS were 38 µM, 20.2 µM and 14.4 µM, respectively.
Consider `O=C(c1ccncc1)n1nc(-c2ccccc2)c(N=Nc2ccccc2[N+](=O)[O-])c1-c1ccccc1`, for which the TGI with A498 renal, with IGROV1 ovarian, with SF-268 CNS, in the assay with SF-295 CNS, in the assay with SK-MEL-2 melanoma and in the assay on SNB-19 CNS was greater than 100 µM in each case. Moreover, the TGI in the assay with SNB-75 CNS and with TK-10 renal was greater than 100 µM in each case.
